Reference: patent US9051240B2, “Substituted 2-[2-(phenyl) ethylamino] alkaneamide derivatives and their use as sodium and/or calcium channel modulators” (Newron Pharmaceuticals S.P.A., priority 2007, dated 2015)
Where two headings read alike, the source gives them in different places.

What was measured:
mice [1] = experiment: Formalin test; type: in vivo; conditions: Mus musculus, po
Protocol: According to a modified protocol from Rosland et al. (Rosland J. H., Tjolsen A., Maehle B., Hole K. Pain (1990) 42: 235-242), mice were injected subcutaneously (s.c.) with 20 μl of 2.7% solution of formalin into the plantar surface of left hindpaw and placed immediately into clear PVC observation chambers (23×12×13 cm). Pain behaviour was quantified by counting the cumulative licking time (s) of the injected paw. Measurements were taken during the early phase (0-5 min) and late phase (20-40 min) after formalin injection (Tjolsen A., Berge O. G., Hunskaar S., Rosland J. H., Hole K. Pain (1992) 51: 5-17).
The test compound was administered p.o. or s.c. 5-45 minutes before formalin injection in a volume of 10 ml/kg body weight to groups of 10 mice per dose. Control group was treated with vehicle.

TTXs sodium channels = experiment: TTXs-sodium channel influx assay (fluorescence, ND7/23 cell line); type: cell-based, rat; conditions: ND7/23 cells, veratridine 100 μM; read-out: Na+ influx IC50
Protocol: ND7/23 rat dorsal root ganglion-derived cell line endogenously expresses a mixed population of TTXs sodium channels. These cells lack of TTXr sodium channels as shown by the absence of their respective transcripts.
ND7/23 cells were grown in DMEM supplemented with 10% FBS and 1 mM sodium piruvate. The cells were seeded at 50,000 cells/well on 96 poly-L-lysine-coated plates and further incubated for 18-24 h before use.
The Membrane Potential Kit Assay (Molecular Devices), based on a negatively charged fluorescent dye able to monitor changes in membrane potential caused by the sodium influx due to the channel opening, was used for the assay.
Cells were incubated with the dye loading for 30 minutes at 25° C. Then, 100 nM of the toxin Anemonia sulcata (used as enhancer of the channel opener response) alone or in the presence of TTX (as reference standard) or test compound were added for further 15 minutes.
The fluorescence (excitation:530 nm, emission: 565 nm wavelength) was measured before and after (40-45 s) the automated injection of the sodium channel opener veratridine (100 μM) using a Victor plate reader (Perkin Elmer).
(§1) The inhibition curves were calculated from 5 concentrations, each in triplicate, and the IC50 determined using linear regression analysis.

[2] = biological target: Na+ currents in rat cortical neurons; experiment: Patch clamp evaluation of Na+ currents blockade in rat cortical neurons; type: cell-based
Protocol: Cortical neurons were prepared from embryonic Wistar rats (E17-E19). A female rat at date 17-19 of pregnancy was anesthetized and sacrificed. The fetuses (n=4-5) were dissected and placed in ice-cold Hank's solution (Hank's solution (Life tech.14170-088)+glucose 30%+Pen-Strep 100× (Life Tech. 15140-122) 100U-100 μg/ml and Hepes-NaOH 5 mM). The uterus and placenta were removed, the fetuses were decapitated and the heads were placed in ice-cold Hank's solution. Cells were counted and diluted in Neurobasal medium to a concentration of 400000 cells per poly-D-lysine 5 μg/ml treated Petri dish. Cortical neurons were used from day 6th till day 11th after plating, and once a week Neurobasal medium was changed. Experiments on cortical neurons were carried out using standard whole cell patch clamp methods (Hamill et al., Pfugers Arch., 1981 August, 391(12), 85-100). Membrane currents were recorded and filtered at 5 kHz with an Axon Axopatch 200B amplifier and data digitized with an Axon Digidata 1322A (Axon Instruments, CA, USA). Protocol playing and data acquisition were controlled online with Axon pClamp8 software. Measuring and reference electrodes were AgCl-Ag electrodes. A Sutter Instrument P-87 Puller (CA, USA) was used for pulling patch clamp pipettes with a resistance of 2-3 MΩ from Harward borosilicate glass tubes. Cells were continuously superfused with extracellular solutions, using a solution changer Biologic RSC-200. To test the effect of compounds on sodium currents in cortical neurons, cells were clamped at -90 mV, then a two step protocol was used to determine the voltage dependence of the block. […] Tonic block of resting and depolarized currents at a given drug concentration, was calculated as the difference between the peak Na^+ current in the control external bath solution and peak currents with the test substance divided by control peak. Drug concentration-inhibition curves were obtained by plotting tonic blocks in the resting and depolarized condition, versus drug concentrations. Dose-response curves were fitted to the tonic block data, according to the logistic equation: […] Control bath solution contained (mM): […] Internal pipette solution consisted of (mM): […] Compounds were dissolved as stock solutions (20 mM) in DMSO. They were diluted to the final concentrations in the external solution.

L-type calcium channels = experiment: Calcium channel influx assay (fluorescence, AtT20 cell line); type: cell-based, mouse; conditions: AtT20 cells, 100 mM KCl depolarization; read-out: Ca++ influx IC50
Protocol: AtT20/D16v-F2 mouse pituitary tumour cell line preferentially expresses L-type calcium channels.
AtT20 cells were grown in DMEM with 10% of FBS, 4 mM glutamine. The cells were seeded at 200,000 cells/well on 96 poly-L-lysine-coated plates and further incubated for 18-24 h, before use.
The Ca^++ Kit Assay (Molecular Devices), which is based on a fluorescent calcium indicator to detect the calcium influx determined by depolarizing conditions, was used for the assay.
Cells were incubated with the calcium dye loading for 30 min at 37° C. Then, ω-conotoxin alone (1 μM) or in presence of nifedipine (as reference standard) or test compound were added for further 15 min.
The fluorescence (excitation: 485-emission: 535 nm wavelength) was measured before and after (30-40 sec) the automated injection of 100 mM KCl depolarizing solution using a Victor plate reader (Perkin Elmer).
as §1

MAO-B = MAO-B (Rattus norvegicus (Rat), UniProt P19643); experiment: In vitro MAO-B enzyme activity assay (radioenzymatic, rat brain mitochondria); type: biochemical; conditions: 14C-PEA 0.5 μM
Protocol: Male Wistar rats (Harlan, Italy weighing 175-200 g) were sacrificed under light anaesthesia and brains were rapidly removed and homogenized in 8 volumes of ice-cold 0.32 M sucrose buffer containing 0.1 M EDTA, pH 7.4. The crude homogenate was centrifuged at 2220 rpm for 10 minutes and the supernatant recovered. The pellet was homogenized and centrifuged again. The two supernatants were pooled and centrifuged at 9250 rpm for 10 minutes at +4° C. The pellet was resuspended in fresh buffer and centrifuged at 11250 rpm for 10 minutes at +4° C. The resulting pellet was stored at −80° C. The enzyme activity was assessed with a radioenzymatic assay using the substrate ^14C-phenylethylamine (PEA) specific for MAO-B. The mitochondrial pellet (500 μg protein) was resuspended in 0.1 M phosphate buffer (pH 7.4). 200 μl of the suspension were added to a 50 μl solution of the test compound or buffer, and incubated for 30 min at 37° C. (preincubation) then the substrate (50 μl) was added. The incubation was carried out for 10 minutes at 37° C. (^14C-PEA, 0.5 μM). The reaction was stopped by adding 0.2 ml of perchloric acid. After centrifugation, the deaminated metabolites were extracted with 3 ml of toluene and the radioactive organic phase containing the neutral and/or acidic metabolites formed as a result of MAO-B activity was measured by liquid scintillation spectrometry at 90% efficiency. The MAO-B activity was expressed as nmoles of substrate transformed/mg protein/min.

mice [3] = experiment: Maximal electroshock test (MES) in mice; type: in vivo; conditions: Mus musculus, iv; mice, MES, i.v.; read-out: MES ED50 mg/kg i.v.
From the text: The maximal electroshock test (MES) is used commonly in the screening of anti-epileptic drugs in rodent models.
Animals and Apparatus: Male CD1 mice weighing 25 g were used. The procedure described by White et al. (White H. S., Woodhead J. H., Franklin M. R., Swinyard E. A., and Wolf H. H. Antiepileptic Drugs (1995) 4th ed: 99-110, Raven Press, Ltd., New York) was followed. An Ugo Basile electroconvulsive generator (Model ECT UNIT 7801) was used to deliver an electrical stimulus sufficient to produce a hindlimb tonic extensor response in at least 97% of control animals. The stimulus was delivered intra-aurally through clip electrodes in mice (0.7 s of a 40 mA shock, with a pulse train of 80 Hz having a pulse duration of 0.4 ms). The acute effect of compounds administered intraperitoneally (i.p.), subcutaneously (s.c.), intravenously (i.v.) or orally (p.o.) 5-120 minutes before MES induction were examined and compared with a vehicle control group. Ten mice were studied per group. Complete suppression of the hindlimb tonic extensor component of seizures was taken as evidence of anticonvulsant activity.
The compounds of the invention were administered p.o. or i.v., at the doses of 0.1-100 mg/kg.

MAO-B, sequence (P19643 whole entry): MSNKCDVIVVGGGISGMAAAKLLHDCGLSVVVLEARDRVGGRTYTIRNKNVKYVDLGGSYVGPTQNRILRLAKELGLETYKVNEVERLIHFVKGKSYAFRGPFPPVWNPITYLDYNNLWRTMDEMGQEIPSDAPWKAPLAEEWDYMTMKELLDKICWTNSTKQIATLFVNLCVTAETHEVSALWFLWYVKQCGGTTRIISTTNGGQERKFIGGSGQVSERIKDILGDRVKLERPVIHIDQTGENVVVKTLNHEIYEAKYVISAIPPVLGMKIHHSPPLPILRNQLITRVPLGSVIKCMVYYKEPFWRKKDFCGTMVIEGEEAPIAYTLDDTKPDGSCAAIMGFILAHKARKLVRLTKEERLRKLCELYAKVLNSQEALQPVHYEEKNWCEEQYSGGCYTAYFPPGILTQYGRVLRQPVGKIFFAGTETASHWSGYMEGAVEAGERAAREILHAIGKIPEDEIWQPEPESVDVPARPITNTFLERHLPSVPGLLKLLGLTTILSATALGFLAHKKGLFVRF

Compound C[C@H](NCc1ccc(OCc2cccc(F)c2)cc1)C(N)=O [safinamide, (S)-(+)-2-[4-(3-fluorobenzyloxy)-benzylamino]-propanamide] has an ED50 (mice [1]) of 69.4 mg/kg, an IC50 (TTXs sodium channels) of 7.4 µM and a Ki ([2]; calculated from Kr and Kdep, read-out: Ki (apparent affinity for the inactivated state)) of 3.6 µM. The IC50 ([2]; preconditioning potential -110 mV, read-out: IC50 resting (Kr)) was over 100 µM, the IC50 ([2]; preconditioning potential ~-50 mV, read-out: IC50 depolarized) was 7 µM and the IC50 ([2]; resting condition, figure in parentheses after >100, read-out: IC50 resting (Kr), value in parentheses) was 180 µM. For the same compound, the IC50 (L-type calcium channels) was 33 µM, the IC50 (MAO-B) was 0.1 µM and the ED50 (mice [3]) was 4 mg/kg.
